The source of these data is patent US12702674B2, “Methods for producing chemoembolic agents for the delivery of anti-cancer agents” (University of Utah Research Foundation, priority 2017, dated 2026).

Data set [1] can be described thus: In vitro drug release from 12% SELP-815K gels (RP-HPLC). Type of data set: physicochemical. Particulars: day 30. As to the method:
(§1) For dual drugs, drug loading was 12.5 mg/mL for each drug, for a total drug loading of 25 mg/mL. Samples were chilled on ice until tested. Samples incorporating powder drug in 12% w/w SELP-815K were prepared without dilution; however, the volume addition of the powdered drug was not considered in the calculation of the SELP concentration. Samples with powdered drug were tested at 25 and 50 mg/mL for single drug loaded samples and 25 mg/mL per drug for dual drug loaded samples.
The drug loaded SELP solutions were drawn into 0.5 cd insulin syringes and incubated overnight at 37° C. followed by cutting into gel disks as previously described. Weights were recorded. Individual gels were placed into 8 dram glass vials, to which 25 mL of release media consisting of 1×PBS, 1% SDS was added. The elution volume was chosen to ensure sink conditions and complete dissolution of both drugs, if all drug eluted immediately. […]
Drug content in the release media was detected by reverse phase high performance liquid chromatography (RP-HPLC; Agilent Technologies, Santa Clara, CA) using a RPC18 X-Terra column (4.6×250 mm, 5 µm particle size; Waters, Milford, MA) and a guard column of the same packing material. […] Percent cumulative release was calculated using the experimental drug loading per disk based on the pre-release weight.

The subject of the next data set is Hep3B. In words: WST-8 cell viability assay, single agent in vitro toxicity. Type of data set: cell-based. The note with it: Homo sapiens, 72 hours of incubation, media containing 0.5% DMSO, read-out: IC50 Values of Each Drug per HCC Cell Line. As to the method:
(§2) Growth inhibition by the base drugs used in this study was evaluated on three different hepatoma cell lines—two human HCC lines and one rat cell line—using a 2-(2-methoxy-4-nitrophenyl)-3-(4-nitrophenyl)-5-(2,4-disulfophenyl)-2H-tetrazolium monosodium salt (WST-8) cell viability assay (Dojindo Molecular Technologies, Inc., Rockville, MD). Human cell lines Hep3B and HepG2 were obtained from ATCC (Manassas, VA) and cultured in EMEM cell culture medium (ATCC) supplemented with 10% fetal bovine serum (FBS). The rat hepatoma line McA-RH7777 was generously donated by the Larson Lab (Northwestern University, IL). This line was cultured in DMEM cell culture medium (ATCC) supplemented with 10% FBS. All lines were grown at 37° C. in a humidified atmosphere of 5% CO2.
(§3) To prevent precipitation of the drugs, media containing 0.5% DMSO was used throughout all the studies. Doubling times of the cell lines were similar; therefore, cells were plated at the same density of 7,000 cells per well in 96-well plates for 24 hours. Media was removed, cells were washed with PBS, and treatment was applied. Drug concentrations were varied to include data points ranging from non-toxic to highly toxic. Following 72 hours of incubation, the media was removed and cell viability was quantified using the WST-8 assay with a SpectraMax M2 spectrophotometer (Molecular Devices, Sunnyvale, CA).
(§4) Each experiment was performed with N=6, assessing viability at 10 different drug concentrations. Relative cell viability was calculated by normalizing against the UV absorbance of untreated cells. GraphPad Prism was used to plot relative cell viability as a function of log drug concentration with a non-linear least-squares regression analysis and calculation of IC50 values.
In general terms: Formazan colour is commonly taken as a measure of viable cells.

The next data set deals with human HCC HepG2 cells. The data set is described as above. Particulars: 72 hours of incubation, media containing 0.5% DMSO, read-out: IC50 Values of Each Drug per HCC Cell Line. Type of data set: cell-based. How it is done: as §2, §3, §4
The test system of data set [2] is rat hepatoma line McA-RH7777. The data set is described as above. Type of data set: cell-based. The note with it: 72 hours of incubation, media containing 0.5% DMSO, read-out: IC50 Values of Each Drug per HCC Cell Line. How it is done:
as §2, §3, §4

Data set [3] can be described thus: In vitro drug release from 9% SELP-815K gels (RP-HPLC). The note with it: for cumulative release of sorafenib: 9% SELP-815K, 14-day release. The class given is physicochemical. As to the method:
(§5) SELP-815K formulations were prepared at 12% w/w in 1× phosphate buffered saline (PBS). Powder drugs were milled for 12 hours to reduce crystal size and variability using a custom built ball mill. Milled samples were inspected microscopically to verify homogeneity. Two methods of drug incorporation were investigated. […] Drug loading concentration was chosen based on manufacturer specified loading of doxorubicin in DEBs. The same loading was used for sorafenib.
as §1
The drug loaded SELP solutions were drawn into 0.5 cd insulin syringes and incubated overnight at 37° C. followed by cutting into gel disks as previously described. Weights were recorded. Individual gels were placed into 8 dram glass vials, to which 25 mL of release media consisting of 1×PBS, 1% SDS was added. The elution volume was chosen to ensure sink conditions and complete dissolution of both drugs, if all drug eluted immediately.
At predetermined time points of 1 hour, 3 hours, 6 hours, 12 hours, 1 day, 3 days, 5 days, 7 days, 10 days, 14 days, and 20 and 30 days for extended-release studies, a sample volume was removed for analysis and replaced with fresh media. Vials were sealed and maintained in a shaking incubator at 37° C., 120 rpm. The 9% SELP-815K gels underwent release testing for 14 days. The 12% SELP-815K gels were tested for 30 days.
Drug content in the release media was detected by reverse phase high performance liquid chromatography (RP-HPLC; Agilent Technologies, Santa Clara, CA) using a RPC18 X-Terra column (4.6×250 mm, 5 µm particle size; Waters, Milford, MA) and a guard column of the same packing material. The elution gradient at time zero began with mobile phase of 40% 20 mM ammonium acetate and 60% acetonitrile (CAN), which increased to 72% CAN over 9 minutes at a flow rate of 1 mL/min. Percent cumulative release was calculated using the experimental drug loading per disk based on the pre-release weight.

A short description of data set [4]: Rheological characterization of drug loaded 9% SELP-815K. The class given is physicochemical. Particulars: SELP solution with dox HCl, as drug powder or DMSO solution, 25 mg/mL. How it is done: as §5, §1
An AR 550 stress-controlled rheometer from TA Instruments (New Castle, DE) was used for rheological testing. A cone-and-plate configuration equipped with a stainless steel 20 mm diameter, 4 degree geometry was used. An oscillation procedure with a temperature ramp from 18° C. to 37° C. […]

Structures can show the parent of a compound that is named as a salt.

On to `COc1cccc2c1C(=O)c1c(O)c3c(c(O)c1C2=O)C[C@@](O)(C(=O)CO)C[C@@H]3O[C@H]1C[C@H](N)[C@H](O)[C@H](C)O1` [Doxorubicin], for which, in data set [1] (25 mg/mL single drug loaded and dual drug loaded gels), the “total drug content of doxorubicin released (cumulative release)” value worked out at 30%. For the same compound, in data set [1] (50 mg/mL single drug loaded gel), the “cumulative release of doxorubicin” value came to 15%. Also, the IC50 (commonly the concentration that gives 50% inhibition) in the data set on Hep3B came out at 0.29 ± 0.04 µM; with human HCC HepG2 cells it was 0.62 ± 0.41 µM; in data set [2], 0.48 ± 0.32 µM. The “loaded doxorubicin released in the first day” value in data set [3] (9% SELP-815K gels, base form, in DMSO or powder, first day) is given as “More than 50%”. Further, the “loaded doxorubicin released by day 14” value in data set [3] (9% SELP-815K gels, base form, day 14) was “nearly all of the loaded drug released”.
Regarding `CNC(=O)c1cc(Oc2ccc(NC(=O)Nc3ccc(Cl)c(C(F)(F)F)c3)cc2)ccn1` [Sorafenib], the IC50 stood at 3.47 ± 0.2 µM in the data set with Hep3B, 1.72 ± 0.7 µM with human HCC HepG2 cells and 6.88 ± 0.83 µM in data set [2]. Besides, the “cumulative release of sorafenib” value was 95% in data set [3] (DMSO dissolved drug, dual drug loaded gels (12.5 mg/mL each drug)); “less than 60%” in data set [3] (DMSO dissolved drug, single drug loaded gel (25 mg/mL)); 22% in data set [3] (powder drug, dual drug loaded gel (12.5 mg/mL each drug)); 8.7% in data set [3] (powder drug, single drug loaded gel (25 mg/mL)).
For the compound `COc1cccc2c1C(=O)c1c(O)c3c(c(O)c1C2=O)C[C@@](O)(C(=O)CO)C[C@@H]3O[C@H]1C[C@H](N)[C@H](O)[C@H](C)O1` [dox HCl, doxorubicin hydrochloride], in data set [4], the “viscosity relative to the SELP control with no drug” value is “more than 2 fold”.
